Results from ChEMBL document CHEMBL2146447, “Synthesis and antimicrobial activity of amido linked pyrrolyl and pyrazolyl-oxazoles, thiazoles and imidazoles” (2011).
Activity calls are given as the source filed them. The rule behind the calls is not given here.

Tests used:
Format in all cases: functional
Aspergillus niger [1] = assay: Antifungal activity against Aspergillus niger at 100 ug after 48 hrs by agar well diffusion method; conditions: for zone of inhibition at 100 µg/disc: read-out: DIZ
Bacillus subtilis [2] = assay: Antibacterial activity against Bacillus subtilis at 50 ug after 24 hrs by agar well diffusion method; conditions: for zone of inhibition at 50 µg/disc: read-out: DIZ
Klebsiella pneumoniae [3] = assay: Antibacterial activity against Klebsiella pneumoniae at 50 ug after 24 hrs by agar well diffusion method; conditions: for zone of inhibition at 50 µg/disc: read-out: DIZ
Penicillium chrysogenum [4] = assay: Antifungal activity against Penicillium chrysogenum at 50 ug after 48 hrs by agar well diffusion method; conditions: for zone of inhibition at 50 µg/disc: read-out: DIZ
Staphylococcus aureus [5] = assay: Antibacterial activity against Staphylococcus aureus assessed at 50 ug after 24 hrs by agar well diffusion method; conditions: for zone of inhibition at 50 µg/disc: read-out: DIZ
Aspergillus niger [6] = assay: Antifungal activity against Aspergillus niger at 50 ug after 48 hrs by agar well diffusion method; conditions: for zone of inhibition at 50 µg/disc: read-out: DIZ
Penicillium chrysogenum [7] = assay: Antifungal activity against Penicillium chrysogenum at 100 ug after 48 hrs by agar well diffusion method; conditions: for zone of inhibition at 100 µg/disc: read-out: DIZ
Pseudomonas aeruginosa [8] = assay: Antibacterial activity against Pseudomonas aeruginosa at 50 ug after 24 hrs by agar well diffusion method; conditions: for zone of inhibition at 50 µg/disc: read-out: DIZ
Klebsiella pneumoniae [9] = assay: Antibacterial activity against Klebsiella pneumoniae at 100 ug after 24 hrs by agar well diffusion method; conditions: for zone of inhibition at 100 µg/disc: read-out: DIZ
Bacillus subtilis [10] = assay: Antibacterial activity against Bacillus subtilis at 100 ug after 24 hrs by agar well diffusion method; conditions: for zone of inhibition at 100 µg/disc: read-out: DIZ
Staphylococcus aureus [11] = assay: Antibacterial activity against Staphylococcus aureus at 100 ug after 24 hrs by agar well diffusion method; conditions: for zone of inhibition at 100 µg/disc: read-out: DIZ
Pseudomonas aeruginosa [12] = assay: Antibacterial activity against Pseudomonas aeruginosa at 100 ug after 24 hrs by agar well diffusion method; conditions: for zone of inhibition at 100 µg/disc: read-out: DIZ

SMILES	zone of inhibition at 50 µg/disc (Bacillus subtilis [2]) [mm]	zone of inhibition at 50 µg/disc (Staphylococcus aureus [5]) [mm]	zone of inhibition at 100 µg/disc (Bacillus subtilis [10]) [mm]	zone of inhibition at 100 µg/disc (Staphylococcus aureus [11]) [mm]	zone of inhibition at 100 µg/disc (Aspergillus niger [1]) [mm]	zone of inhibition at 50 µg/disc (Klebsiella pneumoniae [3]) [mm]	zone of inhibition at 50 µg/disc (Penicillium chrysogenum [4]) [mm]	zone of inhibition at 50 µg/disc (Aspergillus niger [6]) [mm]	zone of inhibition at 100 µg/disc (Penicillium chrysogenum [7]) [mm]	zone of inhibition at 50 µg/disc (Pseudomonas aeruginosa [8]) [mm]	zone of inhibition at 100 µg/disc (Klebsiella pneumoniae [9]) [mm]	zone of inhibition at 100 µg/disc (Pseudomonas aeruginosa [12]) [mm]	also measured
O=C(/C=C/c1ccccc1)Nc1nc(-c2ccccc2)co1	15	12	16	15									diameter of the inhibition zone (DIZ) (Aspergillus niger [1]): inactive; diameter of the inhibition zone (DIZ) (Klebsiella pneumoniae [3]): inactive; diameter of the inhibition zone (DIZ) (Penicillium chrysogenum [4]): inactive; diameter of the inhibition zone (DIZ) (Aspergillus niger [6]): inactive; diameter of the inhibition zone (DIZ) (Penicillium chrysogenum [7]): inactive; diameter of the inhibition zone (DIZ) (Pseudomonas aeruginosa [8]): inactive; diameter of the inhibition zone (DIZ) (Klebsiella pneumoniae [9]): inactive; diameter of the inhibition zone (DIZ) (Pseudomonas aeruginosa [12]): inactive
O=C(Nc1nc(-c2ccccc2)cs1)c1n[nH]cc1-c1ccccc1	12	9	14	12	12	14	11	9	14	9	16	11	
O=C(Nc1nc(-c2ccc(Cl)cc2)co1)c1c[nH]cc1-c1ccccc1	17	18	21	20	26	23	25	24	28	18	25	20	
O=C(Nc1nc(-c2ccccc2)co1)c1n[nH]cc1-c1ccccc1	13	10	15	12	13	15	12	10	15	10	17	12	
Cc1ccc(-c2csc(NC(=O)c3n[nH]cc3-c3ccccc3)n2)cc1	10	9	13	11	11	13	10	8	13	8	15	11	
Cc1ccc(-c2coc(NC(=O)c3n[nH]cc3-c3ccccc3)n2)cc1													diameter of the inhibition zone (DIZ) (Aspergillus niger [1]): inactive; diameter of the inhibition zone (DIZ) (Bacillus subtilis [2]): inactive; diameter of the inhibition zone (DIZ) (Klebsiella pneumoniae [3]): inactive; diameter of the inhibition zone (DIZ) (Penicillium chrysogenum [4]): inactive; diameter of the inhibition zone (DIZ) (Staphylococcus aureus [5]): inactive; diameter of the inhibition zone (DIZ) (Aspergillus niger [6]): inactive; diameter of the inhibition zone (DIZ) (Penicillium chrysogenum [7]): inactive; diameter of the inhibition zone (DIZ) (Pseudomonas aeruginosa [8]): inactive; diameter of the inhibition zone (DIZ) (Klebsiella pneumoniae [9]): inactive; diameter of the inhibition zone (DIZ) (Bacillus subtilis [10]): inactive; diameter of the inhibition zone (DIZ) (Staphylococcus aureus [11]): inactive; diameter of the inhibition zone (DIZ) (Pseudomonas aeruginosa [12]): inactive
O=C(Nc1nc(-c2ccc(Cl)cc2)cs1)c1n[nH]cc1-c1ccccc1	28	27	31	29	32	30	31	30	34	24	33	26	
Cc1ccc(-c2csc(NC(=O)/C=C/c3ccccc3)n2)cc1	23	20	25	22	23	25	22	19	25	15	27	17	
Cc1ccc(-c2c[nH]c(NC(=O)c3c[nH]cc3-c3ccccc3)n2)cc1	17	14	19	16	17	19	16	14	19	13	21	14	
O=C(Nc1nc(-c2ccccc2)c[nH]1)c1c[nH]cc1-c1ccccc1	18	15	20	17	18	20	17	16	20	14	22	15	
Cc1ccc(-c2coc(NC(=O)c3c[nH]cc3-c3ccccc3)n2)cc1													diameter of the inhibition zone (DIZ) (Aspergillus niger [1]): inactive; diameter of the inhibition zone (DIZ) (Bacillus subtilis [2]): inactive; diameter of the inhibition zone (DIZ) (Klebsiella pneumoniae [3]): inactive; diameter of the inhibition zone (DIZ) (Penicillium chrysogenum [4]): inactive; diameter of the inhibition zone (DIZ) (Staphylococcus aureus [5]): inactive; diameter of the inhibition zone (DIZ) (Aspergillus niger [6]): inactive; diameter of the inhibition zone (DIZ) (Penicillium chrysogenum [7]): inactive; diameter of the inhibition zone (DIZ) (Pseudomonas aeruginosa [8]): inactive; diameter of the inhibition zone (DIZ) (Klebsiella pneumoniae [9]): inactive; diameter of the inhibition zone (DIZ) (Bacillus subtilis [10]): inactive; diameter of the inhibition zone (DIZ) (Staphylococcus aureus [11]): inactive; diameter of the inhibition zone (DIZ) (Pseudomonas aeruginosa [12]): inactive
O=C(Nc1nc(-c2ccccc2)c[nH]1)C1=NNCC1c1ccccc1 (stereo unspecified)	15	12	17	14	15	17	14	13	17	12	19	14	
Cc1ccc(-c2c[nH]c(NC(=O)c3n[nH]cc3-c3ccccc3)n2)cc1	9	8	12	9	9	11	8	8	11	9	13	10	
Cc1ccc(-c2csc(NC(=O)C3=NNCC3c3ccccc3)n2)cc1 (stereo unspecified)	16	13	18	15	16	18	15	13	18	12	20	13	
O=C(/C=C/c1ccccc1)Nc1nc(-c2ccc(Cl)cc2)cs1	27	29	29	32	33	33	32	31	35	25	35	27	
O=C(Nc1nc(-c2ccccc2)co1)c1c[nH]cc1-c1ccccc1	13	12	15	14									diameter of the inhibition zone (DIZ) (Aspergillus niger [1]): inactive; diameter of the inhibition zone (DIZ) (Klebsiella pneumoniae [3]): inactive; diameter of the inhibition zone (DIZ) (Penicillium chrysogenum [4]): inactive; diameter of the inhibition zone (DIZ) (Aspergillus niger [6]): inactive; diameter of the inhibition zone (DIZ) (Penicillium chrysogenum [7]): inactive; diameter of the inhibition zone (DIZ) (Pseudomonas aeruginosa [8]): inactive; diameter of the inhibition zone (DIZ) (Klebsiella pneumoniae [9]): inactive; diameter of the inhibition zone (DIZ) (Pseudomonas aeruginosa [12]): inactive
O=C(/C=C/c1ccccc1)Nc1nc(-c2ccccc2)cs1	24	21	26	23	24	26	23	21	26	17	28	18	
O=C(Nc1nc(-c2ccc(Cl)cc2)c[nH]1)C1=NNCC1c1ccccc1 (stereo unspecified)	24	25	27	27	30	28	29	28	32	21	30	24	
